In ChEMBL document CHEMBL3044676, “Effect of Antibiotics on Formation of Aerial Mycelium and Production of Phytotoxins in Streptomyces spp” (2003):
The source made the active and inactive calls. The calls are words filed in the database; no cut-off is given here.

Columns and labels:
Streptomyces alboniger [1] = assay: Antimicrobial activity against Streptomyces alboniger IFO 12738 assessed as inhibition of aerial mycelial growth at 0.04 ug/disk after 5 days by paper disk method; format: functional, organism-based
Streptomyces alboniger [2] = assay: Antimicrobial activity against Streptomyces alboniger IFO 12738 assessed as inhibition of aerial mycelial growth at 0.4 ug/disk after 5 days by paper disk method; format: functional
Streptomyces alboniger [3] = assay: Antimicrobial activity against Streptomyces alboniger IFO 12738 assessed as inhibition of aerial mycelial growth at 4 ug/disk after 5 days by paper disk method; format: functional
[4] = system: Streptomyces acidiscabies; assay: Antimicrobial activity against Streptomyces acidiscabies ATCC 4900315 assessed as inhibition of aerial mycelial growth at 0.4 ug/disk after 5 days by paper disk method; format: functional; settings: for zone of inhibition at 0.4 µg/disc: ATCC 4900315, 120 h, read-out: DIZ
[5] = system: Streptomyces acidiscabies; assay: Antimicrobial activity against Streptomyces acidiscabies ATCC 4900315 assessed as inhibition of aerial mycelial growth at 0.04 ug/disk after 5 days by paper disk method; format: functional
[6] = system: Streptomyces acidiscabies; assay: Antimicrobial activity against Streptomyces acidiscabies ATCC 4900315 assessed as inhibition of aerial mycelial growth at 4 ug/disk after 5 days by paper disk method; format: functional; settings: for zone of inhibition at 4 µg/disc: ATCC 4900315, 120 h, read-out: DIZ
Streptomyces scabiei [7] = assay: Growth stimulation of Streptomyces scabiei ATCC 4917314 at 4 ug/disk after 5 days by paper disk method; format: functional
Streptomyces scabiei [8] = assay: Antimicrobial activity against Streptomyces scabiei ATCC 4917314 assessed as inhibition of aerial mycelial growth at 0.04 ug/disk after 5 days by paper disk method; format: functional; settings: for zone of inhibition at 0.04 µg/disc: ATCC 4917314, 120 h, read-out: DIZ
Streptomyces scabiei [9] = assay: Antimicrobial activity against Streptomyces scabiei ATCC 4917314 assessed as inhibition of aerial mycelial growth at 4 ug/disk after 5 days by paper disk method; format: functional; settings: for zone of inhibition at 4 µg/disc: ATCC 4917314, 120 h, read-out: DIZ
Streptomyces scabiei [10] = assay: Antimicrobial activity against Streptomyces scabiei ATCC 4917314 assessed as inhibition of aerial mycelial growth at 0.40 ug/disk after 5 days by paper disk method; format: functional; settings: for zone of inhibition at 0.4 µg/disc: ATCC 4917314, 120 h, read-out: DIZ
Streptomyces alboniger [11] = assay: Antimicrobial activity against Streptomyces alboniger IFO 12738 assessed as inhibition of growth at 4 ug/disk after 5 days by paper disk method; format: functional; settings: IFO 12738, 120 h, read-out: DIZ
[12] = system: Streptomyces acidiscabies; assay: Antimicrobial activity against Streptomyces acidiscabies ATCC 4900315 assessed as inhibition of growth at 0.4 ug/disk after 5 days by paper disk method; format: functional; settings: ATCC 4900315, 120 h, read-out: DIZ
[13] = system: Streptomyces acidiscabies; assay: Antimicrobial activity against Streptomyces acidiscabies ATCC 4900315 assessed as inhibition of growth at 4 ug/disk after 5 days by paper disk method; format: functional; settings: ATCC 4900315, 120 h, read-out: DIZ
Streptomyces scabiei [14] = assay: Antimicrobial activity against Streptomyces scabiei ATCC 4917314 assessed as inhibition of growth at 4 ug/disk after 5 days by paper disk method; format: functional; settings: ATCC 4917314, 120 h, read-out: DIZ
[15] = system: Streptomyces acidiscabies; assay: Reduction in concanamycins A and B production in Streptomyces acidiscabies ATCC 4900315 at 0.45 ug/ml after 5 days relative to untreated control; format: functional, organism-based
[16] = system: Streptomyces acidiscabies; assay: Reduction in thaxtomin A production in Streptomyces acidiscabies ATCC 4900315 at 0.45 ug/ml after 5 days relative to untreated control; format: functional; design: scale not given: the % may be the effect or the level left
Streptomyces scabiei [17] = assay: Reduction in concanamycins A and B production in Streptomyces scabiei ATCC 4917314 at 3.6 ug/ml after 5 days relative to untreated control; format: functional; design: scale not given: the % may be the effect or the level left
Streptomyces scabiei [18] = assay: Reduction in thaxtomin A production in Streptomyces scabiei ATCC 4917314 at 3.6 ug/ml after 5 days relative to untreated control; format: functional; design: scale not given: the % may be the effect or the level left
[19] = system: Streptomyces acidiscabies; assay: Antimicrobial activity against Streptomyces acidiscabies ATCC 4900315 assessed as mycelial weigh change at 0.45 ug/ml after 5 days relative to untreated control; format: functional
Streptomyces scabiei [20] = assay: Antimicrobial activity against Streptomyces scabiei ATCC 4917314 assessed as mycelial weigh change at 3.6 ug/ml after 5 days relative to untreated control; format: functional
Streptomyces scabiei [21] = assay: Antimicrobial activity against Streptomyces scabiei ATCC 4917314 assessed as inhibition of growth at 0.4 ug/disk after 5 days by paper disk method; format: functional
Streptomyces scabiei [22] = assay: Growth stimulation of Streptomyces scabiei ATCC 4917314 at 0.4 ug/disk after 5 days by paper disk method; format: functional; settings: ATCC 4917314, 120 h, read-out: DIZ
[23] = system: Streptomyces acidiscabies; assay: Reduction in concanamycins A and B production in Streptomyces acidiscabies ATCC 4900315 at 1.5 ug/ml after 5 days relative to untreated control; format: functional, organism-based
[24] = system: Streptomyces acidiscabies; assay: Reduction in thaxtomin A production in Streptomyces acidiscabies ATCC 4900315 at 1.5 ug/ml after 5 days relative to untreated control; format: functional; design: scale not given: the % may be the effect or the level left
Streptomyces scabiei [25] = assay: Reduction in concanamycins A and B production in Streptomyces scabiei ATCC 4917314 at 1.2 ug/ml after 5 days relative to untreated control; format: functional; design: scale not given: the % may be the effect or the level left
Streptomyces scabiei [26] = assay: Reduction in thaxtomin A production in Streptomyces scabiei ATCC 4917314 at 1.2 ug/ml after 5 days relative to untreated control; format: functional; design: scale not given: the % may be the effect or the level left
Streptomyces scabiei [27] = assay: Antimicrobial activity against Streptomyces scabiei ATCC 4917314 assessed as mycelial weigh change at 1.2 ug/ml after 5 days relative to untreated control; format: functional
[28] = system: Streptomyces acidiscabies; assay: Antimicrobial activity against Streptomyces acidiscabies ATCC 4900315 assessed as mycelial weigh change at 1.5 ug/ml after 5 days relative to untreated control; format: functional

For `CO/N=C(\C(=O)N[C@@H]1C(=O)N2C(C(=O)O)=C(COC(C)=O)CS[C@H]12)c1csc(N)n1` [CEFOTAXIME], the “diameter of the inhibition zone (DIZ)” value (Streptomyces alboniger [1]) was “inactive”, the “diameter of the inhibition zone (DIZ)” value (Streptomyces alboniger [2]) was “inactive” and the “diameter of the inhibition zone (DIZ)” value (Streptomyces alboniger [3]) was “inactive”. The “diameter of the inhibition zone (DIZ)” value [4] was “inactive”, the “diameter of the inhibition zone (DIZ)” value [5] was “inactive” and the zone of inhibition at 4 µg/disc [6] was 15 mm. The zone of inhibition at 4 µg/disc (Streptomyces scabiei [7]; Streptomyces scabiei, ATCC 4917314, 120 h, read-out: DIZ) was 22 mm, the “diameter of the inhibition zone (DIZ)” value (Streptomyces scabiei [8]) was “inactive” and the “diameter of the inhibition zone (DIZ)” value (Streptomyces scabiei [9]) was “inactive”. The “diameter of the inhibition zone (DIZ)” value (Streptomyces scabiei [10]) was “inactive”.
For `NC[C@H]1O[C@H](O[C@H]2[C@H](O)[C@@H](O[C@H]3O[C@H](CO)[C@@H](O)[C@H](N)[C@H]3O)[C@H](N)C[C@@H]2N)[C@H](O)[C@@H](O)[C@@H]1O` [KANAMYCIN], the “diameter of the inhibition zone (DIZ)” value (Streptomyces alboniger [1]) was “inactive”, the “diameter of the inhibition zone (DIZ)” value (Streptomyces alboniger [2]) was “inactive” and the zone of inhibition at 4 µg/disc (Streptomyces alboniger [11]) was 14 mm. The “diameter of the inhibition zone (DIZ)” value (Streptomyces alboniger [3]) was “inactive”, the zone of inhibition at 0.4 µg/disc [12] was 12 mm and the zone of inhibition at 4 µg/disc [13] was 18 mm. The “diameter of the inhibition zone (DIZ)” value [4] was “inactive”, the “diameter of the inhibition zone (DIZ)” value [5] was “inactive” and the “diameter of the inhibition zone (DIZ)” value [6] was “inactive”. The “diameter of the inhibition zone (DIZ)” value (Streptomyces scabiei [8]) was “inactive”, the zone of inhibition at 4 µg/disc (Streptomyces scabiei [14]) was 13 mm and the zone of inhibition at 4 µg/disc (Streptomyces scabiei [9]) was 18 mm. It also gave a zone of inhibition at 0.4 µg/disc (Streptomyces scabiei [10]) of 10 mm.
In the case of `CN[C@@H]1[C@H](O)[C@H](NC)[C@H]2O[C@@]3(O)C(=O)C[C@@H](C)O[C@H]3O[C@@H]2[C@H]1O` [SPECTINOMYCIN], the Activity [15] is reported as “Below limit of detection”, the Activity [16] is reported as 59% and the Activity (Streptomyces scabiei [17]) is reported as 1.1%. For the same molecule, the Activity (Streptomyces scabiei [18]) was 0.8%, the Activity [19] was 8.31% and the Activity (Streptomyces scabiei [20]) was 5.01%. The “diameter of the inhibition zone (DIZ)” value (Streptomyces alboniger [1]) was “inactive”, the “diameter of the inhibition zone (DIZ)” value (Streptomyces alboniger [2]) was “inactive” and the zone of inhibition at 4 µg/disc (Streptomyces alboniger [3]; IFO 12738, 120 h, read-out: DIZ) was 35 mm. The zone of inhibition at 0.4 µg/disc [4] was 20 mm, the “diameter of the inhibition zone (DIZ)” value [5] was “inactive” and the zone of inhibition at 4 µg/disc [6] was 31 mm. The “diameter of the inhibition zone (DIZ)” value (Streptomyces scabiei [21]) was “inactive”, the zone of inhibition at 0.04 µg/disc (Streptomyces scabiei [8]) was 27 mm and the zone of inhibition at 4 µg/disc (Streptomyces scabiei [9]) was 19 mm. The zone of inhibition at 0.4 µg/disc (Streptomyces scabiei [10]) was 11 mm.
For `N[C@@H]1CONC1=O` [CYCLOSERINE], the “diameter of the inhibition zone (DIZ)” value (Streptomyces alboniger [1]) was “inactive”, the “diameter of the inhibition zone (DIZ)” value (Streptomyces alboniger [2]) was “inactive” and the “diameter of the inhibition zone (DIZ)” value (Streptomyces alboniger [3]) was “inactive”. The “diameter of the inhibition zone (DIZ)” value [4] was “inactive”, the “diameter of the inhibition zone (DIZ)” value [5] was “inactive” and the “diameter of the inhibition zone (DIZ)” value [6] was “inactive”. For the same molecule, the zone of inhibition at 0.4 µg/disc (Streptomyces scabiei [22]) was 24 mm, the Activity (Streptomyces scabiei [7]) was 44 mm and the “diameter of the inhibition zone (DIZ)” value (Streptomyces scabiei [8]) was “inactive”. For the same molecule, the “diameter of the inhibition zone (DIZ)” value (Streptomyces scabiei [9]) was “inactive” and the “diameter of the inhibition zone (DIZ)” value (Streptomyces scabiei [10]) was “inactive”.
`CN(C)[C@@H]1C(O)=C(C(N)=O)C(=O)[C@@]2(O)C(O)=C3C(=O)c4c(O)ccc(Cl)c4[C@@](C)(O)[C@H]3C[C@@H]12` [CHLORTETRACYCLINE] was tested, and the Activity [23] was “Below limit of detection”, the Activity [24] was less than 10% and the Activity (Streptomyces scabiei [25]) was 0.1%. The Activity (Streptomyces scabiei [26]) was 0.6%, the Activity (Streptomyces scabiei [27]) was 2.1% and the “diameter of the inhibition zone (DIZ)” value (Streptomyces alboniger [1]) was “inactive”. The “diameter of the inhibition zone (DIZ)” value (Streptomyces alboniger [2]) was “inactive”, the “diameter of the inhibition zone (DIZ)” value (Streptomyces alboniger [3]) was “inactive” and the Activity [28] was 6.8%. It also gave a zone of inhibition at 4 µg/disc [13] of 16 mm, a zone of inhibition at 0.4 µg/disc [4] of 19 mm and a zone of inhibition at 0.04 µg/disc ([5]; ATCC 4900315, 120 h, read-out: DIZ) of 11 mm. For the same molecule, the zone of inhibition at 4 µg/disc [6] was 35 mm, the zone of inhibition at 0.04 µg/disc (Streptomyces scabiei [8]) was 11 mm and the zone of inhibition at 4 µg/disc (Streptomyces scabiei [14]) was 19 mm. The zone of inhibition at 4 µg/disc (Streptomyces scabiei [9]) was 27 mm and the zone of inhibition at 0.4 µg/disc (Streptomyces scabiei [10]) was 20 mm.
